Data on 31 compounds can be found in US20230242494A1, “MALONITRILE DERIVATIVES” (Hoffmann-La Roche Inc., priority 2020, published 2023).

Structures are written as SMILES.

T1 sequence (Q8N884 161-522): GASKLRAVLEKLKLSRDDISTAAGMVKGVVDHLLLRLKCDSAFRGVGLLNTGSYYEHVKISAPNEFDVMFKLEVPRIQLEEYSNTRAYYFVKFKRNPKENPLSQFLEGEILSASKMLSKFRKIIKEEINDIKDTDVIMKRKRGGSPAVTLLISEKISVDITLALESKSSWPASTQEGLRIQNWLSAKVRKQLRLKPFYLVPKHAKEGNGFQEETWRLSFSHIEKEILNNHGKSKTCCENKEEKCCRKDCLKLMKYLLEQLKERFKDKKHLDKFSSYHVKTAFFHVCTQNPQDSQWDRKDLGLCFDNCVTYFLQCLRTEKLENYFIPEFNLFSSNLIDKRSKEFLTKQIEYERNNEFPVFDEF

The experiment has as its target T1, human cGAS (residues 161-522) (Homo sapiens, UniProt Q8N884).
T1 construct: human cGAS (residues 161-522); made in house
Briefly: cGAS Activity Assay—Malachite Green. The experiment is classed as biochemical. The following applies: recombinant purified human cGAS 25 nM; 80 μM ATP, 80 μM GTP, 100 nM ISD; 4 hour at RT; phosphate detection by Malachite Green. Here is the method: Compounds were tested for cGAS inhibition in a coupled enzymatic assay based on Phosphate detection by Malachite Green. Final assay conditions were 20 mM TRIS pH 7.5 (Applichem), 5 mM MgCl2 (Sigma) and 0.01% BSA (Sigma) supplemented with 80 μM ATP (Sigma), 80 μM GTP (Sigma) and 100 nM Interferon Stimulating DNA (ISD) (Microsynth). Recombinantly expressed purified human cGAS (residues 161-522) was used at 25 nM.
All compounds were prepared as 10 mM stock solutions in DMSO and a 16 pt dilution series in DMSO with a dilution factor of 2.5 was prepared. 1 μL of DMSO dilution series was transferred to 32.3 μL reaction buffer, mixed by pipetting up/down, spun for 1 minute at 3000 rpm and was visually inspected for precipitation. 5 μL of 3-fold enzyme stock solution were transferred to an empty 384-well Black/Clear Flat Bottom Polystyrene NBS (Corning) rows 3-24. Rows 1-2 were filled with assay buffer. Plates were spun 10 seconds at 1000 rpm (164×g). 5 μL of compound intermediate dilution was added and mixed by pipetting up/down to rows 3-24. Rows 1-2 were filled with 3.1% DMSO assay buffer. Plates were spun 10 seconds at 1000 rpm (164×g). 5 μL 3-fold Nucleotide/DNA mix was added to all wells to start the reaction. Plates were spun 10 seconds at 1000 rpm (164×g) and incubated for 4 hour at room temperature (RT) in the dark. 5 μL 4 U/ml PPase (Sigma) were added to all wells. Plates spun 10 seconds at 1000 rpm (164×g). 10 μL BioMol green Solution (Enzo Life Sciences) was added to all wells. Plates spun 10 seconds at 1000 rpm (164×g) and incubated 30 minutes at RT in the dark. Absorbance data was collected 620 nm on an EnVision Multilable Reader (Perkin Elmer) and the following measurement settings were used: excitation filter photometric was 620 nm; excitation from the top; measurement height was 1 mm; number of flashes was 30; number of flashes integrated was 1.
All plates are checked for abnormalities and outliers in the Blank Control (no protein, row 1) and the Neutral Control (no compound, row 2) are excluded using the 3*SD rule. Data was normalized to 0 and 100% by Blank and Neutral Control and each curve was fitted and judged using the 4 parameter logistic equation to determine the IC50 for cGAS inhibition.
Table 13 provides IC50 values (μM) for cGAS inhibition obtained for particular examples of the present invention as measured by the above-described assay.
Consider `Cc1oncc1/C(O)=C(\C#N)C(=O)Nc1ncc(C(=O)N(C)Cc2ccccc2)c(CCc2ccccc2)n1` [Example 133, (Z)-N-benzyl-2-(2-cyano-3-hydroxy-3-(5-methylisoxazol-4-yl)acrylamido)-N-methyl-4-phenethylpyrimidine-5-carboxamide], for which the IC50 – broadly, the concentration that inhibits the measured activity by half – was found to be 1330 nM. With `CCCNS(=O)(=O)c1ccc(NC(=O)/C(C#N)=C(\O)c2cnoc2C)cc1` [Example 48, (Z)-2-cyano-3-hydroxy-3-(5-methylisoxazol-4-yl)-N-(4-(N-propylsulfamoyl)phenyl) acrylamide], the IC50 was 100 nM. Consider `Cc1oncc1/C(O)=C(\C#N)C(=O)Nc1ccc(OC2COC2)cc1` [Example 41, (Z)-2-cyano-3-hydroxy-3-(5-methylisoxazol-4-yl)-N-[4-(oxetan-3-yloxy)phenyl]prop-2-enamide], for which the IC50 worked out at 1290 nM. The figure for `Cc1oncc1/C(O)=C(\C#N)C(=O)Nc1ccc(Cl)cc1` [Example 20, (Z)-N-(4-chlorophenyl)-2-cyano-3-hydroxy-3-(5-methylisoxazol-4-yl)acrylamide] is 1120 nM. Next, `Cc1oncc1/C(O)=C(\C#N)C(=O)Nc1cccc(S(C)(=O)=O)c1` [Example 26, (Z)-2-cyano-3-hydroxy-3-(5-methylisoxazol-4-yl)-N-(3-(methylsulfonyl)phenyl) acrylamide]: 1510 nM.

For `Cc1oncc1/C(O)=C(\C#N)C(=O)Nc1ccc(C(=O)N[C@H]2CCN(Cc3ccccc3)C2)cc1` [Example 70, (S,Z)-N-(1-benzylpyrrolidin-3-yl)-4-(2-cyano-3-hydroxy-3-(5-methylisoxazol-4-yl)acrylamido)benzamide], the IC50 worked out at 1000 nM. With `Cc1oncc1/C(O)=C(\C#N)C(=O)Nc1ccc(C(C)(C)c2ccccc2)cc1` [Example 104, (Z)-2-cyano-3-hydroxy-3-(5-methylisoxazol-4-yl)-N-(4-(2-phenylpropan-2-yl)phenyl)acrylamide], the IC50 was 3110 nM. On to `COCCNS(=O)(=O)c1ccc(NC(=O)/C(C#N)=C(\O)c2cnoc2C)cc1` [Example 29, (Z)-2-cyano-3-hydroxy-N-(4-(N-(2-methoxyethyl)sulfamoyl)phenyl)-3-(5-methylisoxazol-4-yl)acrylamide], for which the half-inhibitory concentration (IC50) was 70 nM. The figure for `Cc1cc(C(F)(F)F)ccc1NC(=O)/C(C#N)=C(\O)c1cnoc1C` [Example 50, (Z)-2-cyano-3-hydroxy-N-(2-methyl-4-(trifluoromethyl)phenyl)-3-(5-methylisoxazol-4-yl)acrylamide] is 1050 nM; for `Cc1oncc1/C(O)=C(\C#N)C(=O)Nc1ccc(S(=O)(=O)Nc2ccc(C#N)cc2)cc1` [Example 57, (Z)-2-cyano-N-(4-(N-(4-cyanophenyl)sulfamoyl)phenyl)-3-hydroxy-3-(5-methylisoxazol-4-yl)acrylamide] it is 290 nM; for `Cc1oncc1/C(O)=C(\C#N)C(=O)Nc1ccc(S(C)(=O)=O)cc1` [Example 115, (Z)-2-cyano-3-hydroxy-3-(5-methylisoxazol-4-yl)-N-(4-methylsulfonylphenyl) prop-2-enamide] it is 180 nM. Next, `Cc1oncc1/C(O)=C(\C#N)C(=O)Nc1ccc(Oc2cccc(C(F)(F)F)c2)cc1` [Example 18, (Z)-2-cyano-3-hydroxy-3-(5-methylisoxazol-4-yl)-N-(4-(3-(trifluoromethyl)phenoxy)phenyl)acrylamide]: 3710 nM; `Cc1oncc1/C(O)=C(\C#N)C(=O)Nc1ccc(S(=O)(=O)Cc2ccccc2Cl)cn1` [Example 109, (Z)—N-(5-((2-chlorobenzyl)sulfonyl)pyridin-2-yl)-2-cyano-3-hydroxy-3-(5-methylisoxazol-4-yl)acrylamide]: 720 nM; `Cc1oncc1/C(O)=C(\C#N)C(=O)Nc1ncc(Sc2ccccc2)cn1` [Example 97, (Z)-2-cyano-3-hydroxy-3-(5-methylisoxazol-4-yl)-N-(5-phenylsulfanylpyrimidin-2-yl)prop-2-enamide]: 210 nM. Regarding `Cc1oncc1/C(O)=C(\C#N)C(=O)Nc1ccc(S(=O)(=O)c2ccccc2)cn1` [Example 95, (Z)-2-cyano-3-hydroxy-3-(5-methylisoxazol-4-yl)-N-(5-(phenylsulfonyl)pyridin-2-yl)acrylamide], the IC50 was 100 nM.

Take `Cc1oncc1/C(O)=C(\C#N)C(=O)Nc1ccc(C(F)(F)F)cn1` [Example 66, (Z)-2-cyano-3-hydroxy-3-(5-methylisoxazol-4-yl)-N-(5-(trifluoromethyl)pyridin-2-yl)acrylamide]: the IC50 was 490 nM. The figure for `Cc1oncc1/C(O)=C(\C#N)C(=O)Nc1cccc(C#N)c1` [Example 33, (Z)-2-cyano-N-(3-cyanophenyl)-3-hydroxy-3-(5-methylisoxazol-4-yl)prop-2-enamide] is 310 nM; for `Cc1cc(NC(=O)/C(C#N)=C(\O)c2cnoc2C)ccc1Br` [Example 23, (Z)-N-(4-bromo-3-methylphenyl)-2-cyano-3-hydroxy-3-(5-methylisoxazol-4-yl)acrylamide] it is 1810 nM; for `Cc1cc(NC(=O)/C(C#N)=C(\O)c2cnoc2C)ccc1C(F)(F)F` [Example 75, (Z)-2-cyano-3-hydroxy-N-(3-methyl-4-(trifluoromethyl)phenyl)-3-(5-methylisoxazol-4-yl)acrylamide] it is 1900 nM. Regarding `Cc1oncc1/C(O)=C(\C#N)C(=O)Nc1ccc(S(=O)(=O)N(C)C)cc1` [Example 1, (Z)-2-cyano-N-(4-(N,N-dimethylsulfamoyl)phenyl)-3-hydroxy-3-(5-methylisoxazol-4-yl)acrylamide], the IC50 was determined as 170 nM. Regarding `Cc1oncc1/C(O)=C(\C#N)C(=O)Nc1ccc(S(=N)(=O)c2ccccc2)cc1` (stereo not shown) [Example 114, (Z)-2-cyano-3-hydroxy-3-(5-methylisoxazol-4-yl)-N-(4-(phenylsulfonimidoyl)phenyl)acrylamide], the IC50 came out at 120 nM.

As to `CC(=O)c1ccc(NC(=O)/C(C#N)=C(\O)c2cnoc2C)cc1` [Example 2, (Z)-N-(4-acetylphenyl)-2-cyano-3-hydroxy-3-(5-methylisoxazol-4-yl)prop-2-enamide], the IC50 is 510 nM. For the compound `Cc1oncc1/C(O)=C(\C#N)C(=O)Nc1ncc(C(F)(F)F)cc1F` [Example 92], the IC50 came to 250 nM. For `Cc1oncc1/C(O)=C(\C#N)C(=O)Nc1ccc([S+]([O-])c2ccccc2)cc1` (stereo not shown) [Example 34, (Z)-2-cyano-3-hydroxy-3-(5-methylisoxazol-4-yl)-N-(4-(phenylsulfinyl)phenyl) acrylamide], the IC50 came out at 190 nM. Next, `Cc1oncc1/C(O)=C(\C#N)C(=O)Nc1cccc(C(F)(F)F)c1` [Example 5, (Z)-2-cyano-3-hydroxy-3-(5-methylisoxazol-4-yl)-N-[3-(trifluoromethyl)phenyl] prop-2-enamide]: 1500 nM. Next, `Cc1oncc1/C(O)=C(\C#N)C(=O)Nc1ncc(S(C)(=O)=O)c(-c2ccccc2Cl)n1` [Example 140, (Z)-N-(4-(2-chlorophenyl)-5-(methylsulfonyl)pyrimidin-2-yl)-2-cyano-3-hydroxy-3-(5-methylisoxazol-4-yl)acrylamide]: 240 nM; `Cc1oncc1/C(O)=C(\C#N)C(=O)Nc1ncc(CCc2ccccc2)c(C(F)(F)F)n1` [Example 131, (Z)-2-cyano-3-hydroxy-3-(5-methylisoxazol-4-yl)-N-(5-phenethyl-4-(trifluoromethyl)pyrimidin-2-yl)acrylamide]: 2180 nM. Take `Cc1oncc1/C(O)=C(\C#N)C(=O)Nc1ccc(S(=O)(=O)c2ccccc2)cc1` [Example 30, (Z)-2-cyano-3-hydroxy-3-(5-methylisoxazol-4-yl)-N-(4-(phenylsulfonyl)phenyl) acrylamide]: the IC50 turned out to be 160 nM. Consider `Cc1oncc1/C(O)=C(\C#N)C(=O)Nc1ccccc1` [Example 3, (Z)-2-cyano-3-hydroxy-3-(5-methylisoxazol-4-yl)-N-phenylacrylamide], for which the IC50 was determined as 1070 nM.

As to `Cc1oncc1/C(O)=C(\C#N)C(=O)Nc1ccc(Oc2ccc(Cl)cc2)cc1` [Example 63, (Z)-N-(4-(4-chlorophenoxy)phenyl)-2-cyano-3-hydroxy-3-(5-methylisoxazol-4-yl)acrylamide], the IC50 turned out to be 3460 nM. In the case of `Cc1oncc1/C(O)=C(\C#N)C(=O)Nc1ncc(-c2ccccc2)cn1` [Example 81, (Z)-2-cyano-3-hydroxy-3-(5-methylisoxazol-4-yl)-N-(5-phenylpyrimidin-2-yl)acrylamide], the IC50 was found to be 670 nM.
